In one data set the target is T1, TbTryS (Trypanosoma brucei, UniProt Q586P2).
T1 sequence (Q586P2 1-627): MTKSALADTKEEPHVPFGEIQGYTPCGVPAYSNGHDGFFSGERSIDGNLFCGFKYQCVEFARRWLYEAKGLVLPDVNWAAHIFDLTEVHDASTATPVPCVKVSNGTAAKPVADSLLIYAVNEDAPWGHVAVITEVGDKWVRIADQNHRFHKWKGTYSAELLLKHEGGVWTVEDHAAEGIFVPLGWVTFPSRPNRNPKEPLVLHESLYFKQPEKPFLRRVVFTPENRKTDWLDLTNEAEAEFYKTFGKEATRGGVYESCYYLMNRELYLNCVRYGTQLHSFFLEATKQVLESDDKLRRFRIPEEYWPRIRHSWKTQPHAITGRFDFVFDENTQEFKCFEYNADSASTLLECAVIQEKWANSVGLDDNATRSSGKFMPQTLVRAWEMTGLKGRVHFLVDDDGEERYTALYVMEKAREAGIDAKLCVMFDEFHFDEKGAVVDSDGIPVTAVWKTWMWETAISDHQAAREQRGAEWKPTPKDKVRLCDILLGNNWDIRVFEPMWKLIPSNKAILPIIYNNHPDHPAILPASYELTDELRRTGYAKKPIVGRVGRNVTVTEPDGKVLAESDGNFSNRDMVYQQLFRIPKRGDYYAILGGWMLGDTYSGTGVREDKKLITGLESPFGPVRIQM
The experiment in a line: Trypanothione synthetase. Particulars: for loss in activity (heterocycle at indazole position 3): indazole series, initial compound 60; for LE (ligand efficiency): calculated as −0.6×ln(IC50)/(heavy atom count). The format is biochemical.

Data set [1] relates to bloodstream form T. brucei. The experiment in a line: Trypanosomal cell proliferation assay. The format is cell-based. Particulars: Trypanosoma brucei, read-out: Tb EC50.
Data set [2] is described as follows: Human cell counter-screen proliferation assay. The format is cell-based. The note with it: MRC5 fibroblasts.
Data set [3] in a line: In vitro metabolic clearance assay. In kind it is in vitro ADME, human. The note with it: for metabolic stability in words: pooled human liver microsomes; for Cli (intrinsic clearance): pooled human microsomes. Background: Liver microsomes are vesicles of endoplasmic reticulum, rich in cytochrome P450 enzymes.
For data set [4], the system named is bloodstream form T. brucei. Particulars: read-out: cell potency, cited from earlier work.

“And” between values parts separate entries of the source, which are not always exact repeats. Identical values can stand only once. Like-named read-outs stand apart in the source and are kept apart here.

Turning to `CC(C)(C)S(=O)(=O)Cc1nc(-c2cccc(Cl)c2)cs1` [Compound 8, 2-((tert-Butylsulfonyl)methyl)-4-(3-chlorophenyl)thiazole], at TbTryS (TbTryS IC50), the 50% inhibitory concentration (IC50) (in general, the concentration that inhibits the measured activity by half) was 0.4 µM and 0.41 µM. In addition, the EC50 in data set [1] was 22 µM. The EC50 in data set [2] is above 50 µM. In data set [3], the “metabolic stability in words” value is given as “reasonably metabolically stable” and the “Cli (intrinsic clearance)” value was determined as 0.9 mL/min/g.

On TbTryS (TbTryS IC50), `O=C(Cn1nc(C(F)(F)F)c2c1CCCC2)NCc1ccc(Cl)cc1` [Compound 26, N-(4-Chlorobenzyl)-2-(3-(trifluoromethyl)-4,5,6,7-tetrahydro-1H-indazol-1-yl)acetamide] returned an IC50 of 3 µM. Besides, in data set [1], the EC50 came to 14 µM. In data set [2], the EC50 is above 50 µM. Besides, in data set [3], the “metabolic stability in words” value is reported as “reasonably metabolically stable” and the “Cli (intrinsic clearance)” value was 3.0 mL/min/g.

The compound `CC(C)(C)C(=O)Cn1nc(-c2ccc(Cl)cc2)c2ccccc21` [Compound 61, 1-(3-(4-Chlorophenyl)-1H-indazol-1-yl)-3,3-dimethylbutan-2-one] showed an IC50 on TbTryS (TbTryS IC50) above 100 µM.

`CC(C)(C)C(=O)Cn1nc(-c2cccc3[nH]ccc23)c2ccccc21` [Compound 62, 1-(3-(1H-Indol-4-yl)-1H-indazol-1-yl)-3,3-dimethylbutan-2-one] displayed a 50% inhibitory concentration (IC50) against TbTryS (TbTryS IC50) of 3.7 µM.

`Cn1ccc2c(-c3nn(CC(=O)C(C)(C)C)c4ccccc34)cccc21` [Compound 63, 3,3-Dimethyl-1-(3-(1-methyl-1H-indol-4-yl)-1H-indazol-1-yl)butan-2-one]: the IC50 on TbTryS (TbTryS IC50) is above 100 µM.

Compound `CC(C)(C)C(=O)Cn1nc(-c2ccc3ccccc3c2)c2ccccc21` [Compound 64, 3,3-Dimethyl-1-(3-(naphthalen-2-yl)-1H-indazol-1-yl)butan-2-one] returned a half-maximal inhibitory concentration (IC50) at TbTryS (TbTryS IC50) above 100 µM.

At TbTryS (TbTryS IC50), `CC(C)(C)C(=O)Cn1nc(-c2ccncc2)c2ccccc21` [Compound 65, 3,3-Dimethyl-1-(3-(pyridin-4-yl)-1H-indazol-1-yl)butan-2-one] showed an IC50 of 0.3 µM.

Consider `CC(C)(C)C(=O)Cn1nc(-c2ccco2)c2ccccc21` [Compound 66, 1-(3-(Furan-2-yl)-1H-indazol-1-yl)-3,3-dimethylbutan-2-one], for which the IC50 against TbTryS (TbTryS IC50) was determined as 1.9 µM. The “loss in activity (heterocycle at indazole position 3)” value at TbTryS was 10 fold.

`CC(C)(C)C(=O)Cn1nc(-c2cccnc2)c2ccccc21` [Compound 67, 1-(3-(3-Pyridyl)-1H-indazol-1-yl)-3,3-dimethylbutan-2-one] returned an IC50 on TbTryS (TbTryS IC50) of 3 µM. Besides, at TbTryS, the “LE (ligand efficiency)” value is 0.35 and the “loss in activity (heterocycle at indazole position 3)” value was determined as 10 fold.

Consider `CC(C)(C)C(=O)Cn1nc(-c2ccsc2)c2ccccc21` [Compound 68, 3,3-Dimethyl-1-(3-(thiophen-3-yl)-1H-indazol-1-yl)butan-2-one], for which, on TbTryS (TbTryS IC50), inhibition was half-maximal at 0.4 µM (IC50). Further, the “LE (ligand efficiency)” value on TbTryS was 0.42.

Take `CC(C)Cn1cc(-c2nn(CC(=O)C(C)(C)C)c3ccccc23)cn1` [Compound 69, 1-(3-(1-Isobutyl-1H-pyrazol-4-yl)-1H-indazol-1-yl)-3,3-dimethylbutan-2-one]: the IC50 on TbTryS (TbTryS IC50) was above 100 µM.

As for `CC(C)(C)C(=O)Cn1nc(-c2cccc(Cl)c2)c2ccccc21` [Compound 70, 1-(3-(3-Chlorophenyl)-1H-indazol-1-yl)-3,3-dimethylbutan-2-one], the IC50 at TbTryS (TbTryS IC50) stood at 0.35 µM; at TbTryS (TbTryS IC50, values in running text), 0.354 µM. Besides, the “LE (ligand efficiency)” value on TbTryS was 0.39.

`CC(C)(C)C(=O)Cn1nc(-c2cccc(F)c2)c2ccccc21` [Compound 71, 1-(3-(3-Fluorophenyl)-1H-indazol-1-yl)-3,3-dimethylbutan-2-one]: on TbTryS, the “in vitro enzyme potency improved over the best HTS hits” value is above 10 fold and the “LE (ligand efficiency)” value is 0.42. Moreover, 0.09 µM corresponded to half-maximal inhibition on TbTryS (TbTryS IC50) (IC50). Moreover, the EC50 in data set [1] came to 7.9 µM. Moreover, the EC50 in data set [2] is above 50 µM. For the same compound, in data set [3], the “metabolic stability in words” value is listed as “reasonably metabolically stable” and the “Cli (intrinsic clearance)” value was determined as 1.6 mL/min/g.

Regarding `CC(C)(C)S(=O)(=O)Cc1nn(-c2ccccc2)c2ccccc12` [Compound 72, 3-(tert-Butylsulfonylmethyl)-1-phenyl-1H-indazole], half-maximal inhibition against TbTryS (TbTryS IC50) (IC50) was put at 0.22 µM. Moreover, the “LE (ligand efficiency)” value at TbTryS was 0.40.

In the case of `CC(C)(C)S(=O)(=O)Cn1nc(-c2cccc(F)c2)c2ccccc21` [Compound 74, 1-(tert-Butylsulfonylmethyl)-3-(3-fluorophenyl)-1H-indazole], half-maximal inhibition against TbTryS (TbTryS IC50) (IC50) was put at 0.12 µM. The “LE (ligand efficiency)” value at TbTryS is on record as 0.40.

Compound `Fc1cccc(-c2nn(Cc3ccccn3)c3ccccc23)c1` [Compound 75, 3-(3-Fluorophenyl)-1-(pyridin-2-ylmethyl)-1H-indazole] had a 50% inhibitory concentration (IC50) against TbTryS (TbTryS IC50) of 2.9 µM. Moreover, the “LE (ligand efficiency)” value on TbTryS is 0.33.

On TbTryS (TbTryS IC50), `Fc1cccc(-c2nn(Cc3cccnc3)c3ccccc23)c1` [Compound 76, 3-(3-Fluorophenyl)-1-(pyridin-3-ylmethyl)-1H-indazole] showed a concentration for half-maximal inhibition (IC50) of 4.5 µM. For the same compound, the “LE (ligand efficiency)” value on TbTryS is on record as 0.32.

In the case of `Cc1nc(Cn2nc(-c3cccc(F)c3)c3ccccc32)c(C)o1` [Compound 77, 4-((3-(3-Fluorophenyl)-1H-indazol-1-yl)methyl)-2,5-dimethyloxazole], the half-inhibitory concentration (IC50) against TbTryS (TbTryS IC50) was found to be 28 µM. Besides, the “LE (ligand efficiency)” value at TbTryS was 0.26.

`Fc1cccc(-c2nn(Cc3cc(-c4ccccc4)on3)c3ccccc23)c1` [Compound 78, 3-((3-(3-Fluorophenyl)-1H-indazol-1-yl)methyl)-5-phenylisoxazole] gave an IC50 against TbTryS (TbTryS IC50) above 100 µM.

In turn, `Cc1cc(Cn2nc(-c3cccc(F)c3)c3ccccc32)no1` [Compound 79, 3-((3-(3-Fluorophenyl)-1H-indazol-1-yl)methyl)-5-methylisoxazole] displayed an IC50 at TbTryS (TbTryS IC50) above 100 µM.

In turn, `CN1CCN(CCCNC(=O)Cn2nc(-c3cccc(F)c3)c3ccccc32)CC1` [Compound 80, 2-(3-(3-Fluorophenyl)-1H-indazol-1-yl)-N-(3-(4-methylpiperazin-1-yl)propyl)acetamide] returned an IC50 against TbTryS (TbTryS IC50) of 0.83 µM. For the same compound, the “LE (ligand efficiency)” value on TbTryS is 0.28.

As for `O=C(Cn1nc(-c2cccc(F)c2)c2ccccc21)NCCCn1ccnc1` [Compound 81, N-(3-(1H-Imidazol-1-yl)propyl)-2-(3-(3-fluorophenyl)-1H-indazol-1-yl)acetamide], on TbTryS, the “decrease in potency relative to 84” value was “eight” and the “LE (ligand efficiency)” value was 0.32. At TbTryS (TbTryS IC50), this compound had an IC50 of 0.35 µM.

At TbTryS (TbTryS IC50), `CC(C)(C)OC(=O)N1CCN(CCNC(=O)Cn2nc(-c3cccc(F)c3)c3ccccc32)CC1` [Compound 82, tert-Butyl-4-(2-(2-(3-(3-fluorophenyl)-1H-indazol-1-yl)acetamido)ethyl)piperazine-1-carboxylate] came in with an IC50 of 2.9 µM. The “LE (ligand efficiency)” value at TbTryS is 0.22.

In turn, `CN(C)CCNC(=O)Cn1nc(-c2cccc(F)c2)c2ccccc21` [Compound 83, N-(2-(Dimethylamino)ethyl)-2-(3-(3-fluorophenyl)-1H-indazol-1-yl)acetamide] came in with a half-inhibitory concentration (IC50) at TbTryS (TbTryS IC50) of 0.145 µM. Further, the “LE (ligand efficiency)” value on TbTryS is 0.38.

On to `O=C(Cn1nc(-c2cccc(F)c2)c2ccccc21)NCc1ccc(Cl)cc1` [Compound 86, N-(4-Chlorobenzyl)-2-(3-(3-fluorophenyl)-1H-indazol-1-yl)acetamide], for which the concentration for half-maximal inhibition (IC50) at TbTryS (TbTryS IC50) is above 100 µM.

As for `CCN(CC)C(=O)Cn1nc(-c2cccc(F)c2)c2ccccc21` [Compound 87, N,N-Diethyl-2-(3-(3-fluorophenyl)-1H-indazol-1-yl)acetamide], 0.2 µM corresponded to half-maximal inhibition at TbTryS (TbTryS IC50) (IC50). The “LE (ligand efficiency)” value at TbTryS is recorded as 0.39.

In turn, `CN(C)C(=O)Cn1nc(-c2cccc(F)c2)c2ccccc21` [Compound 88, 2-(3-(3-Fluorophenyl)-1H-indazol-1-yl)-N,N-dimethylacetamide] came in with an IC50 on TbTryS (TbTryS IC50) of 0.11 µM. For the same compound, at TbTryS, the “LE (ligand efficiency)” value is on record as 0.44.

As for `CN1CCN(CCNC(=O)Cn2nc(-c3cccc(F)c3)c3ccccc32)CC1` [Compound 90, 2-(3-(3-Fluorophenyl)-1H-indazol-1-yl)-N-(2-(4-methylpiperazin-1-yl)ethyl)acetamide], the IC50 on TbTryS (TbTryS IC50) was determined as 0.86 µM. The “LE (ligand efficiency)” value at TbTryS is given as 0.29.

For the compound `NCCCC(N)(C(=O)O)C(F)F` (stereo not drawn) [eflornithine], in data set [4] (drugs in clinical use), the EC50 was 22 µM.

`Nc1nc(N)nc(Nc2ccc([As]3SCC(CO)S3)cc2)n1` (stereo not drawn) [melarsoprol]: in data set [4] (drug in clinical use), the EC50 was 0.008 µM.

On to `CC1CS(=O)(=O)CCN1/N=C/c1ccc([N+](=O)[O-])o1` (stereo not drawn) [nifurtimox], for which the EC50 in data set [4] (drugs in clinical use) was 2 µM.

With “N-Methyl-(3-(dimethylamino)propyl)-2-(3-(3-fluorophenyl)-1H-indazol-1-yl)acetamide [Compound 85]”, at TbTryS, the “LE (ligand efficiency)” value was 0.35. At TbTryS (read-out: TbTryS IC50), the IC50 is 0.17 µM.

(Values after publication PMC3320663 (Chemmedchem, 2011).)
